For orientation: IC50 means the concentration needed to halve the response being measured.

The values that follow come from US11345702B1 (Myoforte Therapeutics, Inc., priority 2020, dated 2022).

15-PGDH/HPGD, sequence (P15428 whole entry): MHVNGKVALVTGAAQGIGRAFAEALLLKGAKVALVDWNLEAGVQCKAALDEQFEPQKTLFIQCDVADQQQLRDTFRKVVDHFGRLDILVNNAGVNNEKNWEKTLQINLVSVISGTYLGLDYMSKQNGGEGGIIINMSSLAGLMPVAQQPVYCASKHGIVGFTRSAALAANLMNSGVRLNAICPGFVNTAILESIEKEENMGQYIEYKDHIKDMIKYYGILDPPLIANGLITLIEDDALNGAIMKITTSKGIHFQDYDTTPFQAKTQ

The first data set addresses 15-PGDH/HPGD (Homo sapiens (Human), UniProt P15428). Put plainly: hPGDH inhibitor screening biochemical assay. The conditions noted are these: read-out: hPGDH: Average IC50. In a few lines:
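Ten-point dose-response inhibition of 15-PGDH measured by fluorescence (340/485 nm) after 10 min at room temperature with PGE2 (15 μM) and NAD+ (0.25 mM), following 10 min enzyme (10 nM)–compound pre-incubation at 37 °C. Buffer: 50 mM Tris-HCl pH 7.5, 0.01% Tween 20. Percent inhibition relative to 1% DMSO; four-parameter IC50.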
Take `O=C(NC1CCS(=O)(=O)CC1)c1cc(Cl)cc(-n2ccc3cc(C(=O)N4CCC(F)(F)CC4)cnc32)c1`: the IC50 was less than 100 nM. Still for that read-out and setting: in the case of `O=C(c1cnc2c(ccn2-c2cc(Cl)cc(C(=O)N3CCS(=O)(=O)CC3)c2)c1)N1CCC(F)(F)CC1` it was less than 100 nM. Still for that read-out and setting: in the case of `NC(=O)c1ccc(-n2ccc3cc(C(=O)N4CCCCC4)cnc32)cn1` [MF-DH-365] it was less than 100 nM; in that of `NC(=O)c1ccc(-n2cc(Cl)c3cc(C(=O)N4CCC(F)CC4)cnc32)cc1` [MF-DH-382, 4-(3-chloro-5-(4-fluoropiperidine-1-carbonyl)-1H-pyrrolo[2,3-b]pyridin-1-yl)benzamide], less than 100 nM.

Turning to `NC(=O)c1ccc(-n2cc(Cl)c3cc(C(=O)N4CCCCC4)cnc32)cc1` [MF-DH-383, 4-(3-chloro-5-(piperidine-1-carbonyl)-1H-pyrrolo[2,3-b]pyridin-1-yl)benzamide], the IC50 is less than 100 nM. Still for that read-out and setting: in the case of `O=C(c1ccc(CS(=O)(=O)c2ccccc2Cl)cc1)N1CCCCC1` [MF-PGDH-040, (4-(((2-chlorophenyl)sulfonyl)methyl)phenyl)(piperidin-1-yl)methanone] it was 100 to 1000 nM; in that of `COc1ccccc1C(=O)Nc1ccc(C(=O)N2CCCCC2)cc1` [MF-PGDH-041], less than 100 nM. The same measure, in the same setting: in the case of `COc1ccccc1C(=O)N(C)c1ccc(C(=O)N2CCCCC2)cc1` [MF-PGDH-042] it was not below 1000 nM; in that of `COc1ccccc1NC(=O)c1ccc(C(=O)N2CCCCC2)cc1` [MF-PGDH-043, N-(2-methoxyphenyl)-4-(piperidine-1-carbonyl) benzamide], 100 to 1000 nM; in that of `O=C(c1ccc(C[S+]([O-])c2ccccc2Cl)cc1)N1CCCCC1` (stereo not drawn) [MF-PGDH-045, (4-(((2-chlorophenyl)sulfinyl)methyl)phenyl)(piperidin-1-yl)methanone], 100 to 1000 nM.

Regarding `O=C(c1ccc2c(c1)ncn2-c1cccc(Cl)c1)N1CCCC1` [MF-PGDH-046], the IC50 was 100 to 1000 nM. As for `O=C(c1ccc2c(c1)ncn2-c1cccc(Cl)c1)N1CCC(F)(F)C1` [MF-PGDH-047], the IC50 is not below 1000 nM. In the case of `O=C(c1ccc2c(c1)ncn2-c1cccc(Cl)c1)N1CCC(F)C1` (stereo not drawn) [MF-PGDH-048], the IC50 was 100 to 1000 nM.

With `O=C(c1ccc2c(c1)ncn2-c1cccc(Cl)c1)N1CCC(Cl)C1` (stereo not drawn) [MF-PGDH-049], the IC50 is less than 100 nM. `O=C(c1ccc2c(c1)ncn2-c1cccc(Cl)c1)N1CCC(O)C1` (stereo not drawn) [MF-PGDH-050]: the IC50 is not below 1000 nM. The same measure, in the same setting: to `O=C(c1ccc2c(c1)ncn2-c1cccc(Cl)c1)N1CCC(O)CC1` [MF-PGDH-052] belongs 100 to 1000 nM; to `O=C(c1ccc2c(-c3cccc(Cl)c3)c[nH]c2c1)N1CCCCC1` [MF-PGDH-053, (3-(3-chlorophenyl)-1H-indol-6-yl)(piperidin-1-yl)methanone], less than 100 nM. Still for that read-out and setting: in the case of `Cn1cc(-c2cccc(Cl)c2)c2ccc(C(=O)N3CCCCC3)cc21` [MF-PGDH-054, (3-(3-chlorophenyl)-1-methyl-1H-indol-6-yl)(piperidin-1-yl)methanone] it was less than 100 nM; in that of `O=C(c1ccc2c(c1)CCCN2c1cccc(Cl)c1)N1CCCCC1` [MF-PGDH-057, (1-(3-chlorophenyl)-1,2,3,4-tetrahydroquinolin-6-yl)(piperidin-1-yl)methanone], less than 100 nM. On the same count and under the same terms, in the case of `O=C(c1ccc2c(c1)CCC(=O)N2c1cccc(Cl)c1)N1CCCCC1` [MF-PGDH-058, 1-(3-chlorophenyl)-6-(piperidine-1-carbonyl)-3,4-dihydroquinolin-2(1H)-one] it was 100 to 1000 nM; in that of `O=C(c1ccc2c(c1)ncn2-c1ccc(O)c(Cl)c1)N1CCCCC1` [MF-PGDH-061, (1-(3-chloro-4-hydroxyphenyl)-1H-benzo[d]imidazol-5-yl)(piperidin-1-yl)methanone], less than 100 nM; in that of `O=C(c1ccc2c(c1)ncn2-c1ccc2c(c1)OCO2)N1CCCCC1` [MF-PGDH-062], less than 100 nM. `O=C(NC1CC1)c1ccc2c(c1)ncn2-c1cccc(Cl)c1` [MF-PGDH-063]: the IC50 was 100 to 1000 nM. On the same count and under the same terms, to `CN(C(=O)c1ccc2c(c1)ncn2-c1cccc(Cl)c1)C1CC1` [MF-PGDH-064, 1-(3-chlorophenyl)-N-cyclopropyl-N-methyl-1H-benzo[d]imidazole-5-carboxamide] belongs not below 1000 nM; to `O=C(Nc1ccccc1)c1ccc2c(c1)ncn2-c1cccc(Cl)c1` [MF-PGDH-065], not below 1000 nM. Same read-out and setting: in the case of `O=C(c1cnc2c(ccn2-c2ccccn2)c1)N1CCCCC1` [MF-PGDH-067] it was less than 100 nM; in that of `O=C(c1cnc2c(ccn2-c2cccnc2)c1)N1CCCCC1` [MF-PGDH-068], less than 100 nM.

Consider `O=C(c1cnc2c(ccn2-c2ccncn2)c1)N1CCCCC1` [MF-PGDH-069], for which the IC50 was less than 100 nM.

For `O=C(c1cnc2c(ccn2-c2cncnc2)c1)N1CCCCC1` [MF-PGDH-070], the IC50 is less than 100 nM. Same read-out and setting: in the case of `O=C(c1cnc2c(ccn2-c2cnccn2)c1)N1CCCCC1` [MF-PGDH-071] it was less than 100 nM; in that of `CCn1cnc(-n2ccc3cc(C(=O)N4CCCCC4)cnc32)c1` [MF-PGDH-073], 100 to 1000 nM; in that of `O=C(c1cnc2c(ccn2-c2cscn2)c1)N1CCCCC1` [MF-PGDH-074], less than 100 nM. For the compound `O=C(c1cnc2c(ccn2-c2c[nH]cn2)c1)N1CCCCC1` [MF-PGDH-075], the IC50 was less than 100 nM. Regarding `Cn1cc(-n2ccc3cc(C(=O)N4CCCCC4)cnc32)cn1` [MF-PGDH-076], the IC50 is less than 100 nM.

`COc1ccccc1C(=O)Nc1ccc(C(=O)N2CCC(F)(F)CC2)cc1` [MF-PGDH-087]: the concentration for half-maximal inhibition (IC50) fell in the range of 100 to 1000 nM. Same read-out and setting: in the case of `O=C(Nc1ccc(C(=O)N2CCCCC2)cc1)c1ccccc1Cl` [MF-PGDH-088] it was 100 to 1000 nM; in that of `COc1cccc(C(=O)Nc2ccc(C(=O)N3CCCCC3)cc2)c1` [MF-PGDH-089], 100 to 1000 nM; in that of `O=C1CCN(C(=O)c2ccc3c(c2)ncn3-c2cccc(Cl)c2)C1` [MF-PGDH-090, 1-(1-(3-chlorophenyl)-1H-benzo[d]imidazole-5-carbonyl)pyrrolidin-3-one], not below 1000 nM. Same read-out and setting: in the case of `Cc1nc2cc(C(=O)N3CCCCC3)ccc2n1-c1cccc(Cl)c1` [MF-PGDH-091] it was less than 100 nM. As for `O=C(c1ccc(COc2ccccc2-c2ccccn2)cc1)N1CCCCC1` [MF-PGDH-095], the IC50 is less than 100 nM. The same measure, in the same setting: in the case of `O=C(c1ccc(COc2ccccc2-c2cnc[nH]2)cc1)N1CCCCC1` [MF-PGDH-096] it was less than 100 nM; in that of `O=C(c1ccc(COc2ccccc2-c2cncs2)cc1)N1CCCCC1` [MF-PGDH-097], less than 100 nM; in that of `O=C(c1ccc2c(c1)ncn2-c1cccc(Cl)c1)N1CCC1` [MF-PGDH-104], 100 to 1000 nM. Still for that read-out and setting: in the case of `CC1(C)CN(C(=O)c2ccc3c(c2)ncn3-c2cccc(Cl)c2)C1` [MF-PGDH-105] it was 100 to 1000 nM; in that of `O=C(c1ccc2c(c1)ncn2-c1cccc(Cl)c1)N1CC(F)C1` [MF-PGDH-106], less than 100 nM; in that of `O=C(c1ccc2c(c1)ncn2-c1cccc(Cl)c1)N1CC(Cl)C1` [MF-PGDH-107], less than 100 nM.

Test system in a further data set: not listed separately
Put plainly: Liver microsome stability assay (MLM). Type of data set: in vitro ADME. The conditions noted are these: mouse liver microsomes. How it is done: A microsomal mixture (microsomes and Kphos buffer) was prepared at a concentration of 1.428 mg/mL in 2 mL tubes. To this microsomal mixture 1.6 μL (1 mM) of test compound and positive control were spiked; from this mixture, 70 μL was transferred to 96 well plate and pre-incubated at 37° C. for 5 min. After pre-incubation, the zero minute time point reaction was stopped using 100 μL of ice-cold acetonitrile containing internal standard and […] (3.33 mM in Kphos buffer) was added. The 45 minute time point reaction was initiated by addition of 30 μL of NADPH (3.33 mM in Kphos buffer) and incubated at 37° C. for 15 and 45 min. Reactions without NADPH and buffer controls (minus NADPH) at 0, 15, and 45 minutes were also incubated to rule out non-NADPH metabolism or chemical instability in the incubation buffer. Incubation reactions were stopped with 100 μL of ice-cold acetonitrile containing internal standard. The plates were centrifuged at 4000 RPM for 15 min and 100 μL aliquots were submitted for analysis by LC-MS/MS. (Verapamil in human liver microsomes (HLM) and rat liver microsomes (RLM) was used as positive controls. Imipramine in mouse liver microsomes (MLM) was used as a positive control.) Samples were monitored for parent compound disappearance in MRM mode (multiple reaction monitoring) using LC-MS/MS. The peak area ratios of analyte versus internal standard were used to calculate the % remaining at the end of 45 minutes in the presence of NADPH.
Turning to `O=C(NC1CCS(=O)(=O)CC1)c1cc(Cl)cc(-n2ccc3cc(C(=O)N4CCC(F)(F)CC4)cnc32)c1`, the “MLM + NADPH (% remaining at 45 min)” value was 81%.

For `O=C(c1cnc2c(ccn2-c2cc(Cl)cc(C(=O)N3CCS(=O)(=O)CC3)c2)c1)N1CCC(F)(F)CC1`, the “MLM + NADPH (% remaining at 45 min)” value is 37%. `NC(=O)c1ccc(-n2ccc3cc(C(=O)N4CCCCC4)cnc32)cn1` [MF-DH-365]: the “MLM + NADPH (% remaining at 45 min)” value is on record as 41%.

For `NC(=O)c1ccc(-n2cc(Cl)c3cc(C(=O)N4CCC(F)CC4)cnc32)cc1` [MF-DH-382, 4-(3-chloro-5-(4-fluoropiperidine-1-carbonyl)-1H-pyrrolo[2,3-b]pyridin-1-yl)benzamide], the “MLM + NADPH (% remaining at 45 min)” value turned out to be 26%. Same read-out and setting: in the case of `NC(=O)c1ccc(-n2cc(Cl)c3cc(C(=O)N4CCCCC4)cnc32)cc1` [MF-DH-383, 4-(3-chloro-5-(piperidine-1-carbonyl)-1H-pyrrolo[2,3-b]pyridin-1-yl)benzamide] it was 12%.
